The assay concerns the target T1, β1 isozyme of PKC from rat brain (Rattus norvegicus, UniProt P68403).
T1 construct: β1 isozyme of PKC from rat brain; from tissue; host or cells: rat brain
In words: Protein kinase C inhibition assay (32P incorporation from γ-32P ATP into synthetic peptide substrate). The class given is biochemical. To be noted: activated by 5×10^-6 M diC8 and 1 μg/mL phosphatidylserine, 50 μM ATP, read-out: IC50 (concentration necessary to achieve 50% inhibition of PKC). The protocol: In vitro activity for protein kinase C inhibition, is quantitated by measuring incorporation of […] from γ-^32 P ATP into synthetic peptide substrates.
Protein Kinase C (PKC) inhibitory activity is quantitated by measuring incorporation of ^32 P from γ-^32 P ATP into synthetic peptide substrates. The inhibitory potential is measured using the β1 isozyme of PKC from rat brain and the synthetic peptide substrate ala-lys-arg-arg-arg-leu-ser-ser-leu-arg-ala.
A reaction mixture containing 25 mM Tris-HCl, pH 7.5, 2.5 mM Mg(NO3), 1.0 mM EGTA, 20 μM substrate, 1 μg/mL phosphatidlserine (PS), 5×10 ^-6 M diacylglycerol(di-C8), and 50 μM ATP is spiked with γ-^32 P ATP (>5,000 Ci/mmol) to provide approximately 10^6 CPM per reaction and 0.08 μg/mL PKC in a 50 μl volume per well. The assay is run with or without test compound, added at various concentrations. After five minutes incubation at room temperature, the reaction is stopped by the addition of 0.2V of a 50% TCA solution. A 30 μl sample from each well (control and test compound) is then spotted onto Whatman P-81 ion exchange chromatography paper, and 32-P incorporation is then counted on a Beckman LS 5000 TA liquid scintillation counter. […]
% Inhibition=1.0 -[(sample CPM-basal CPM)/(total CPM-basal CPM)]×100 and the concentration necessary to achieve 50% Inhibition is determined.

T1 sequence (P68403 whole entry): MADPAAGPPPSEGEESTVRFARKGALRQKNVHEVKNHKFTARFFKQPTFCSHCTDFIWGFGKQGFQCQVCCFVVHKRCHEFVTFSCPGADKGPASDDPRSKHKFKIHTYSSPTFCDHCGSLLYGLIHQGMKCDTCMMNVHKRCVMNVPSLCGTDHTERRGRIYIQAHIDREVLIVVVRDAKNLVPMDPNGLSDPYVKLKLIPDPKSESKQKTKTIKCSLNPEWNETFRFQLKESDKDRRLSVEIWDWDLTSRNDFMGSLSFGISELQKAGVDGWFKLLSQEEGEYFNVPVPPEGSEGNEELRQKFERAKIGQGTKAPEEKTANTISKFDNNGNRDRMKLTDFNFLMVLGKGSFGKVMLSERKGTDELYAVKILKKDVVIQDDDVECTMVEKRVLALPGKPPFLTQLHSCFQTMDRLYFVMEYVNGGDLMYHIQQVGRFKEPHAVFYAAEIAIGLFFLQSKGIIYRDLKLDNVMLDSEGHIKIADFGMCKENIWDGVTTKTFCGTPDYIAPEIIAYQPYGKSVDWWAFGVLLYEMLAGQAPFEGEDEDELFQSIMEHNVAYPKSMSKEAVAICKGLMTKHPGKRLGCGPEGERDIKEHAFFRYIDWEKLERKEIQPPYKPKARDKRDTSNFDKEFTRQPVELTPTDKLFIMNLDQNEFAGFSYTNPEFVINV

For the compound `CNCCCn1c2ccccc2c2c3c(c(-c4ccsc4)cc21)C(=O)NC3=O` [1,3-dioxo-6-(3-methylaminopropyl)-1,2,3,6-tetrahydro-4-(thiophen-3-yl)-pyrrolo[3,4-c]carbazole], the IC50 was found to be 30 nM.

The values are drawn from patent US5721267A, “Chemotherapeutic pyrrolocarbazole derivatives” (Syntex (U.S.A.) Inc., priority 1997, dated 1998).
